Experiment [1] concerns synovial fluid mononuclear cells (SFMC). The experiment in a line: Induction of apoptosis in synovial fluid mononuclear cells (Annexin-V/PI). The format is cell-based, human. As to conditions: adherent and non-adherent SFMC from RA patients, 5 μM and 10 μM, 24 hours. How it is done: The assay was designed as in reference, Arthritis and Rheumatism, Vol. 52, No. 1, January 2005, the disclosure of which is incorporated herein by reference for the teaching of the assay.
Synovial fluid was collected from rheumatoid arthritis patients under going knee aspiration. The fluid was collected in vacutainers and processed within 2 hours of collection. SFMC were isolated using gradient centrifugation using Ficoll-Hypaque solution (Sigma). Isolated SFMC were suspended in RPMI 1640 (Rosewell Park Memorial Institute) culture medium (Sigma-Aldrich Fine Chemicals, USA) containing 20% fetal bovine serum (FBS) (JRH, USA), 100 U/ml penicillin (Sigma Chemical Co. St Louis, Mo.) and 100 μg/mL streptomycin (Sigma Chemical Co. St Louis, Mo.). The cell concentration was adjusted to 1×10^6 cells/mL. The viability as determined by trypan blue dye exclusion was uniformly >98%. 4 mL of this cell suspension was added to each well of a 6-well plate. The SFMC were incubated for 3-4 hours. Non-adherent cells were removed and cultured separately in 6-well plates. Fresh medium was added to the adherent cells. After 24 hours incubation in a humidified atmosphere at 37° C. in 5% CO2, non-adherent cells were removed and pooled with previous days samples. These cells were plated at a density of 2×10^6 cells/well. The adherent cell population was re-fed fresh complete medium. […]

For a further experiment, the system named is IL-1β. In words: LPS-induced IL-1β release from hPBMCs (ELISA). The experiment is classed as cell-based. As to conditions: Homo sapiens. How it is done:
Cytokine production by lipopolysaccharides (LPS) in hPBMCs (human peripheral blood mononuclear cells) was measured as in reference, Physiol. Res. 2003, 52, 593-598, the disclosure of which is incorporated by reference for the teaching of the assay. Blood was collected from healthy donors into Potassium EDTA vacutainer tubes (BID vacutainer). The PBMC were isolated using gradient centrifugation in Histopaque-1077 solution (Sigma). Isolated PBMC were suspended in RPMI 1640 (Rosewell Park Memorial Institute) culture medium (Sigma-Aldrich Fine Chemicals, USA) containing 10% fetal bovine serum (FBS) (JRH, USA), 100 U/mL penicillin (Sigma Chemical Co. St Louis, Mo., USA) and 100 μg/mL streptomycin (Sigma Chemical Co. St Louis, Mo.). The cell concentration was adjusted to 1×10^6 cells/mL. The viability as determined by trypan blue dye exclusion was uniform Ly≧98%. The cell suspension (100 μL) was added to the wells of a 96-well culture plate. Following cell plating, 79 μL of the culture medium and 1 μL of various concentrations of test compounds (compounds of formula 1) (final concentration 0.001, 0.003, 0.005, 0.01, 0.025, 0.03, 0.05, 0.1, 0.25, 0.3 and 1 μM) dissolved in DMSO (dimethyl sulfoxide, Sigma, Mo., USA) were added to the cells. The final concentration of DMSO was adjusted to 0.5%. The vehicle (0.5% DMSO) was used as control. […]

The subject of a further experiment is IL-6. The experiment in a line: Spontaneous IL-6 release from synovial cells of RA patients. The experiment is classed as cell-based. Particulars: Homo sapiens, Synovial cell, freshly isolated synovial cells from RA patients, 16 hours. How it is done:
Cytokine production in synovial cells obtained from rheumatoid arthritis patients undergoing knee replacement surgery, was measured as per the method described in reference, Lancet, 1989, 29, 244-247, the disclosure of which is incorporated herein by reference for the teaching of the assay. The synovial membrane tissue was digested by incubating at 37° C. for 3 hours in an atmosphere of 5% CO2, in Roswell Park Memorial Institute (RPMI) medium containing penicillin-G (100 U/mL), streptomycin (100 μg/mL), amphotericin B (50 ng/mL) (GIBCO), 1.33 mg/mL collagenase Type I (Worthington Biochemical Corporation, New Jersey, USA), 0.5 μg/mL DNAse Type I (SIGMA) and 8.33 U/mL heparin (Biological E. Limited, India). The digested tissue was then filtered through a membrane (mesh size 70 micron) (SIGMA), the cells were washed 3 times and suspended in complete medium (RPMI supplemented with 5% FCS and 5% human serum). The cell concentration was adjusted to 1×10^6 cells/mL. The viability as determined by trypan blue dye exclusion was uniform Ly≧98%. The cell suspension (100 μL) was added to the wells of a 96-well culture plate. […] The final concentration of DMSO was adjusted to 0.5%. The vehicle (0.5° A) DMSO) was used as control. SB 203580 (20 μM) was used as a standard. The plates were incubated for 16 hours at 37° C. in 5% CO2 atmosphere. […]

What is called IC50 is the midpoint of a concentration-inhibition curve. Consider `CN1CC[C@@H](c2c(O)cc(O)c3c(=O)cc(-c4ccc(C(F)(F)F)cc4Cl)oc23)[C@@H]1CO.Cl` [Compound of example 3, (+)-trans-2-(2-Chloro-4-trifluoromethyl-phenyl)-5,7-dihydroxy-8-(2-hydroxymethyl-1-methyl-pyrrolidin-3-yl)-chromen-4-one hydrochloride], for which the “Induction of apoptosis (Annexin-V/PI)” value in experiment [1] was “induces apoptosis”. Also, the results for the 50% inhibitory concentration (IC50) with IL-1β and in the experiment on IL-6 were 0.1 µM and 10 µM, respectively.

(Values after patent US8906953B2, “Pyrrolidine substitute flavones for the treatment of inflammatory disorders” (Piramal Enterprises Limited, priority 2010, dated 2014).)
